Non-standard residues stand in square brackets, D forms with d. Residues, ends and D or L forms follow the SMILES beside them. *: point of attachment. X1 = COc1ccc(C[C@@H](CN[C@@H](CCCNC(=N)N)C(=O)O)N*)cc1; Hyp = O=C(O)[C@@H]1C[C@@H](O)CN1; 2Thi = N[C@@H](Cc1cccs1)C(=O)O
Assays:
human B2R [1] = biological target: T1, human B2R (Homo sapiens, UniProt P30411); test: Radioligand displacement binding assay, [3H]BK, human B2R-HEK293 cells; details: displacement of 1 nM [3H]BK, living adherent HEK293 cells stably expressing human B2R, serum-free DMEM, 1.5 h, 4 °C; mean of two independent experiments performed in duplicates
T1 construct: expressed in transfected cells; host or cells: QBI HEK 293A cells, lentiviral transduction with pCDH-BDKRB2, puromycin selection
T1 sequence (P30411 1-391): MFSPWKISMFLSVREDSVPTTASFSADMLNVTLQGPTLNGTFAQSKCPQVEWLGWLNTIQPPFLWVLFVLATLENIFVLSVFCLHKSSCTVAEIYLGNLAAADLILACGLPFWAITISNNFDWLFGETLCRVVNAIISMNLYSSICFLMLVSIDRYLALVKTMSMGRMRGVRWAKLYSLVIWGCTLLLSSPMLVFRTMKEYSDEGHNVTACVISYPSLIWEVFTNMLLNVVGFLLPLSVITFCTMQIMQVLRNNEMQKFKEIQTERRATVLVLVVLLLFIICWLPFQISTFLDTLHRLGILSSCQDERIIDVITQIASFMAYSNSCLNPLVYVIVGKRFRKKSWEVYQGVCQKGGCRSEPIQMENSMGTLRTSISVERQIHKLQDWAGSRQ
Protocol: The pCDH-BDKRB2 vector was produced from the plasmid pcDNA3.1/human BDKRB2 by PCR amplification using the primers 5′-[…]-3′ and 5′-[…]-3′, and introduced into pCDH-CMV-MCS-EF1 vector using BamHI et XbaI restriction sites. Lentiviruses were produced from pCDH-BDKRB2 vector in HEK293T cells using the X-tremeGENE HP transfection reagent (Millipore-Sigma, Oakville, ON, Canada). Lentiviruses were harvested 48 h post-transfection and used to infect QBI HEK 293A cells (ATCC). Transduced cells were selected using 5 µg/mL of puromycin (Thermo Fisher, Burlington, On, Canada).
Radioligand displacement binding assays were performed as we previously described, with slight modifications. HEK293 cells stably expressing human B2R were used for these assays (see text above). […] Radioactivity of samples was measured by a β-scintillation counter (PerkinElmer, Woodbridge, On, Canada). Binding affinities of peptides were expressed in terms of IC50 values—the molar concentration of an unlabeled agonist causing 50% displacement of specific binding (GraphPad Prism 8.2).

human B2R [2] = biological target: T1, human B2R; test: IP-One accumulation assay, human B2R-HEK293 cells; type: cell-based; details: IP1 accumulation, 30 min, room temperature, pH 7.4, 50 mM LiCl, human B2R-HEK293, 15,000 cells per well; mean of two independent experiments performed in duplicates; read-out: IP1 Assays (EC50; nM)
Protocol: The IP-One assay was performed on living, adherent human B2R-HEK293 cells according to the manufacturer’s recommendations (Cisbio, #62IPAPEB, Bedford, MA, USA). […] IP1-d2 and anti-IP1-Cryptate were added for at least 1 h. Fluorescence signal was measured using a Tecan M1000 plate reader (excitation at 320 nm and emission at 620 and 665 nm). EC50 values were calculated by curve-fitting using GraphPad Prism 8.2.

[3] = system: BBB, normal and focal-irradiated dog brains; details: in vivo, iv; cited from earlier work
Source text: Radiation therapy is part of the standard treatment paradigm for CNS tumors. The short-term effects of prior radiotherapy on the BBB opening induced by Labradimil have been investigated in normal and focal-irradiated dog brains. […] In this study, we focused on late post-radiotherapy complications leading to radionecrosis (Figure 4), which c ...

[4] = system: angiotensin-converting enzyme (ACE, alias kininase II); details: cited from earlier work

For `COc1ccc(C[C@@H](CN[C@@H](CCCNC(=N)N)C(=O)O)NC(=O)[C@@H]2CCCN2C(=O)[C@H](CO)NC(=O)[C@H](Cc2cccs2)NC(=O)CNC(=O)[C@@H]2C[C@@H](O)CN2C(=O)[C@@H]2CCCN2C(=O)[C@@H](N)CCCNC(=N)N)cc1` [Labradimil, [Hyp^3, Thi^5, (^4Me)Tyr^8(ΨCH2NH)Arg^9]-BK] (H-RP[Hyp]G[2Thi]SP-X1), the IC50 (human B2R [1]) is given as 17 nM, the EC50 (human B2R [2]) is given as 47 nM and the “vasogenic edema associated with focal radiation injury” value [3] is given as “not exacerbating the vasogenic edema associated with focal radiation injury”. For the same compound, the “protection against enzymatic degradation by ACE” value [4] was “fully protected against enzymatic degradation by the angiotensin-converting enzyme”.

— article PMC7650794, “Pharmacological Modulation of Blood–Brain Barrier Permeability by Kinin Analogs in Normal and Pathologic Conditions” (Pharmaceuticals, 2020)
